Source: patent US8449864B2 (The Board of Trustees of the Leland Stanford Junior …, priority 2006, dated 2013)
Peptide text beside a SMILES is read from it.

Tests used:
PLCs containing PMCs = assay: NT degradation by peritoneal lavage cells (PLCs) containing peritoneal mast cells; format: cell-based, mouse; settings: Kit+/+ PLCs pre-treated 15 min at 37° C. (chym 100 μM, CFp 10 μM, PCI 10 μg/ml, p03 100 nM); NT 10 μM, 30 min
Protocol: FIG. 5. Neurolysin and carboxypeptidase inhibitors prevent NT degradation by peritoneal mast cells. Kit^+/+ PLCs containing 5×10^4 PMCs were pre-treated for 15 min at 37° C. with one of the following protease inhibitors: chymostatin (chym, chymase inhibitor at 100 μM), CFp-Ala-Ala-Phe-pAB (CFp, […] at 10 μM only for PLCs), potato carboxypeptidase inhibitor (PCI, carboxypeptidase inhibitor at 10 μg/ml) and phosphodiepryl 03 (p03, neurolysin inhibitor at 100 nM for PLCs. Cells were then incubated with NT (10 μM) for 30 min at 37° C. Results are the percentage of NT remaining after incubation with cells compared to the starting concentration of NT (n=4-9 per group).
FIG. 12. (a), PLCs containing 1×10^4 PMCs obtained from either wild type C57BL/6 mice, Ntsr1-deficient (Ntsr1^−/−) mice or Ntsr2-deficient (Ntsr2^−/−) mice were incubated for 2 h with ^3H-5-hydroxytryptamine (3H-serotonin) at 37° C. and stimulated for 15 min at 37° C. with either ET-1 (4 μM) or NT (10 μM). (b), PLCs containing 1×10^4 PMCs obtained from C57BL/6 mice were incubated for 2 h with ^3H-serotonin and stimulated for 15 min with either ET-1 (4 μM) or NT (10 μM). In a separate set of experiments, cells were pre-incubated with BAPTA-AM (Sigma) ([…], 15 min at […]) before the addition of the stimuli. Results are mean ±SEM of 3 experiments. (c), mMC-CPA activity was measured in supernatants obtained from Kit^+/+ PLCs containing 5×10^4 PMCs that were stimulated for 30 min at 37° C. with either ET-1 (4 μM) or NT (10 μM). (d), PLCs containing 5×10^4 PMCs from C57BL/6J mice were pre-treated for 15 min at 37° C. with BAPTA-AM ([…], a Ca^2+ chelator that can reduce MC degranulation) and then incubated with NT (10 μM) for 30 min at 37° C. Results are expressed as the percentage of NT remaining after incubation with cells compared to that in samples of NT incubated in vehicle alone at 37° C. (data were pooled from triplicate determinations in two independent experiments that gave similar results). (e), Expression of mRNA for NT-receptors in the AtT20 neuroendocrine cell line, the mast cell line C1.MC/C57.1, C57BL/6J BMCMCs, Kit^+/+ BMCMCs and peritoneal mast cells purified from Kit^+/+ mice (PMCs).
NT, ET-1, C-reactive protein, and TNF measurements. Concentrations of NT, C-reactive protein, ET-1 and TNF were measured by ELISA (Bachem Peninsula Labs for NT; Biomedica, Vienna for C-reactive protein and ET-1; BD Biosciences for TNF). […] The detection limits for the ELISA kits were: 24 fmol/ml (NT), 0.048 fmol/ml (ET-1), 0.124 ng/ml (C-reactive protein) and […] (human TNF).

neurolysin (NLN) = molecular target: T1, neurolysin (NLN) (Mus musculus, UniProt Q91YP2); assay: NT degradation by membrane and cytosol preparations of BMCMCs; format: biochemical; settings: Pro-Ile 10 mM; NT 10 μM
T1 construct: membrane and cytosol preparations obtained from Kit^+/+ BMCMCs (2×10^6 cells/preparation); endogenous in cells; host or cells: Kit+/+ mouse bone marrow-derived cultured mast cells (BMCMCs), membrane and cytosol fractions
T1 sequence (Q91YP2 38-704): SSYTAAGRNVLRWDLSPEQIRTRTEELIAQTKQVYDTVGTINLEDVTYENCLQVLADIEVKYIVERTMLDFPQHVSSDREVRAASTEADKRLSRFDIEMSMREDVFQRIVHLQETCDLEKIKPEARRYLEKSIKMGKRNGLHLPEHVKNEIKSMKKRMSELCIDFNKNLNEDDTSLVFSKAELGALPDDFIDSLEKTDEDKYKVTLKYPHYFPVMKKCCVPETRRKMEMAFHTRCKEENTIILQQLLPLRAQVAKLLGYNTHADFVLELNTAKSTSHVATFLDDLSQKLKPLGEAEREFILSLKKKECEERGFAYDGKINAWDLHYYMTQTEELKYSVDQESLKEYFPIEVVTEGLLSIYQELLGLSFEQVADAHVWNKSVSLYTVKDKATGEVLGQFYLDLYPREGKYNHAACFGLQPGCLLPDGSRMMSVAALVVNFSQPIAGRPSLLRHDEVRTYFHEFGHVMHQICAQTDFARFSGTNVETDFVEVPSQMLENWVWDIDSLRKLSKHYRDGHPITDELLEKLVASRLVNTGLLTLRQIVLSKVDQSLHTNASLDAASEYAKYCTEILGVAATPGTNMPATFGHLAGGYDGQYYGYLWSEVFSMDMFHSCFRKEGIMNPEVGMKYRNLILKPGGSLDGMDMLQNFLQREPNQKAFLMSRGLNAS
Protocol: FIG. 8. MC-associated neurolysin (NLN) contributes to the MCs' ability to reduce NT-induced hypotension. (a) Identification of NLN in the membrane and cytosol fractions of C1.MC/C57.1 MCs and C57BL/6J BMCMCs. […] Results are expressed as the percentage of NT remaining after incubation with membrane or cytosol preparations compared to that in samples of NT incubated in vehicle alone (n=3). (c, d) Degradation of NT (10 μM) by A23187 (5 μM)-activated Kit^+/+ BMCMCs (2×10^5) that were pre-treated with either empty vector, Neurolysin-short hairpin RNA (NLN-shRNA) or mouse MC carpoxypeptidase A-short hairpin RNA (mMC-CPA-shRNA). Cells were incubated with NT for 30 min at 37° C. Results are expressed as the percentage of NT remaining in the samples compared to that in samples of NT incubated in vehicle alone at 37° C. (n=3). (e) Changes in MAP versus baseline levels (=“0”, measured 3 min after injection of 300 μl saline, i.p.) at various times after injection of NT (6 nmol in 300 μl saline, i.p.) in Kit^W/W-v mice which had been engrafted i.p. with Kit^+/+ BMCMCs treated with either empty vector (empty vector MCs→Kit^W/W-v), NLN-shRNA (NLN-shRNA MCs→Kit^W/W-v) or mMC-CPA-shRNA (mMC-CPA-shRNA MCs→Kit^W/W-v). (f) MCs in the peritoneal cavity (arrows, MCs; scale bars, 100 μm; May Grunwald-modified Giemsa stain) and mesentery (arrows, MCs; scale bars, 100 μm; Czaba stain). […]

PMCs = assay: Internalization of rhodamine-labelled peptide by PMCs (flow cytometry, confocal microscopy); format: cell-based, mouse
Protocol: FIG. 11. […] P<0.0001 versus corresponding NT- or ET-1-injected groups. […] (b) Flow cytometry analysis and confocal microscopy of C57BL/6 PMCs incubated with NT-rhodamine (50 μM) (red) at 4° C. (0 min) or placed at 37° C. for 5 or 15 min. PMCs were identified among other PLCs by flow cytometry by staining of IgE bound to the MCs (green). […] (c) PLCs containing 5×10^4 PMCs from either C57BL/6, Ntsr1^−/− or Ntsr2^−/− mice were incubated with NT (10 μM) for 30 min at 37° C. Results are expressed as the percentage of NT remaining after incubation with cells compared to that in samples of NT incubated in vehicle alone at 37° C. (data were pooled from triplicate determinations in two independent experiments that gave similar results). (d,e) Changes in MAP vs. baseline levels (=“0”, measured 3 min after injection of 300 μl saline, i.p.) at various times after injection of NT (6 nmol in 300 μl saline, i.p.) (d), and NT levels in the peritoneal fluids of these mice at 30 min after injection (e), in Kit^W/W-v mice that had been engrafted i.p. with BMCMCs of C57BL/6-Ntsr1^+/+ or -Ntsr1^−/− origin. (f) Survival after CLP (50% ligation; single puncture with 22 G needle) in Kit^W/W-v mice that had been engrafted i.p. with BMCMCs of C57BL/6-Ntsr1^+/+ or -Ntsr1^−/− origin.
FIGS. 19a-19f. (a-c) Flow cytometry analysis and (d, e) confocal microscopy of Ntsr+/+ (a, c) or Ntsr1−/−2−/− (b) PMCs pre-loaded with either NT-rhodamine (a, b) or scrambled peptide-rhodamine (c) ([…]) (red) that were placed at 37° C. for the indicated times. Control cells pre-loaded with either NT-rhodamine or scrambled peptide-rhodamine were maintained at 4° C. (“0 min”). PMCs were identified among other peritoneal lavage cells (PLCs) in confocal microscopy by green staining of IgE bound to the PMC surface and in flow cytometry by staining of c-Kit receptors. (f) Fold increase in mean fluorescence intensity by flow cytometry in PMCs versus other (non mast cell) PLCs obtained from Ntsr+/+ mice incubated for 15 min at 37° C. with NT-rhodamine when compared to control cells that were maintained at 4° C. for 15 min. Data are representative of (a-e) or pooled from (f) the three experiments performed, each of which gave similar results.
Flow cytomety and confocal microscopy. Cells were incubated for 16 h in DMEM+10% FCS+2 μg/ml IgE (hybridoma H1-DNP-ε26). Cells were washed and resuspended in DMEM+10% fetal calf serum (FCS)+NT-rhodamine (AnaSpec) (50 μM) and placed at 4° C. for 1 h. Some cells then were placed at 37° C. for 5 or 15 min. IgE Abs bound to PMCs were stained with FITC-conjugated anti-mouse IgE Abs (BD Biosciences). Levels of surface IgE were analyzed by flow cytometry, as described above.

NTR1 = settings: different tissues and cells from various species; cited from earlier work

**Q.** With `CC(NC(=O)C(C)NC(CCc1ccccc1)C(=O)O)C(=O)NC(Cc1ccccc1)C(=O)Nc1ccc(C(=O)O)cc1` (stereo not drawn) [CFp-Ala-Ala-Phe-pAB] as the compound, how does the “NT degradation by PLCs in presence of protease inhibitor” value (“NT degradation … of protease inhibitor” for short) (PLCs containing PMCs) read?
**A.** The value was “did not prevent NT degradation”.

**Q.** Which “NT degradation by membrane or cytosol preparations of BMCMCs” value (neurolysin (NLN)) does the source give for `CC[C@H](C)[C@H](NC(=O)[C@@H]1CCCN1)C(=O)O` [Pro-Ile] (H-Pro-Ile-OH) here?
**A.** The value was “almost completely inhibited”.

**Q.** With NT-rhodamine: rhodamine-labelled NT as the compound, how does the “binding and internalization by PMCs” value (PMCs; C57BL/6 PMCs, 50 μM, 37° C. for 5 or 15 min) read?
**A.** The value was “bound and internalized”.

**Q.** What about the “internalization by PMCs lacking Ntsr1 and Ntsr2” value (PMCs; Ntsr1−/−2−/− PMCs, 10 µM, 37° C.) of the same compound?
**A.** Its value is “peptide internalization did not occur”.

**Q.** What about the “uptake by PMCs compared with non mast cells of the peritoneal cavity” value (PMCs; Ntsr+/+ PLCs, 15 min at 37° C.) of the same compound?
**A.** Its value is “more efficient”.

**Q.** And the “internalization by PMCs” value (PMCs; Ntsr+/+ PMCs, 10 µM, 37° C.)?
**A.** The value was “able to internalize”.

**Q.** For `CC(C)C[C@H](NC(=O)[C@@H](NC(=O)N[C@@H](Cc1ccccc1)C(=O)O)[C@@H]1CCN=C(N)N1)C(=O)N[C@H](C=O)Cc1ccccc1` [chymostatin], which “NT degradation … of protease inhibitor” value (PLCs containing PMCs) is on record?
**A.** Its value is “did not prevent NT degradation”.

**Q.** Which “NT degradation … of protease inhibitor” value (PLCs containing PMCs) does the source give for “PCI: potato carboxypeptidase inhibitor; mouse MC carboxypeptidase A (mMC-CPA) inhibitor (QQHADPICNKPCKTHDDCSGAWFCQACWNSARTCGPYVG; UniProt P01075 1-39, looked up)” here?
**A.** Its value is “significantly inhibited”.

**Q.** With `COc1cccc(OC)c1-c1cc(C(=O)NC2(C(=O)O)C3CC4CC(C3)CC2C4)nn1-c1ccnc2cc(Cl)ccc12` (stereo not drawn) [SR48692] as the compound, how does the “affinity for NTR1” value (NTR1) read?
**A.** Its value is “nanomolar affinity”.
